# Experimental data published in ChEMBL document CHEMBL1201862, “PubChem BioAssay data set” (2004).
#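 Exposure lasted 48 hours, with cells grown in 96-well plates and compounds tested at five concentrations. GI50: concentration for 50% inhibition of growth.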 Active and inactive are the calls of the source. No stated cut-off is given here; in the data, active = GI50 up to about 1.1 µM and inactive = higher.
# Tests used:
# Assay in all cases: growth of human tumour cells (NCI), 48 h
# MDA-MB-435 = test system: MDA-MB-435
# T47D = test system: T47D
# HCT-116 = test system: HCT-116
# NCI-H460 = test system: NCI-H460
# M14 = test system: M14
# IGROV-1 = test system: IGROV-1
# BT-549 = test system: BT-549
# CAKI-1 = test system: CAKI-1
# UACC-62 = test system: UACC-62
# EKVX = test system: EKVX
# NCI-H226 = test system: NCI-H226
# MDA-N = test system: MDA-N
# K562 = test system: K562
# OVCAR-5 = test system: OVCAR-5
# SK-MEL-5 = test system: SK-MEL-5
# MDA-MB-231 = test system: MDA-MB-231
# HOP-62 = test system: HOP-62
# NCI-H23 = test system: NCI-H23
# Malme-3M = test system: Malme-3M
# DU-145 = test system: DU-145
# HCT-15 = test system: HCT-15
# COLO 205 = test system: COLO 205
# UACC-257 = test system: UACC-257
# OVCAR-3 = test system: OVCAR-3
# PC-3 = test system: PC-3
# OVCAR-8 = test system: OVCAR-8
# NCI/ADR-RES = test system: NCI/ADR-RES
# KM12 = test system: KM12
# A549 = test system: A549
# UO-31 = test system: UO-31
# SNB-19 = test system: SNB-19
# MCF7 = test system: MCF7
# 786-0 = test system: 786-0
# OVCAR-4 = test system: OVCAR-4
# SK-MEL-2 = test system: SK-MEL-2
# NCI-H522 = test system: NCI-H522
# SN12C = test system: SN12C
# SR = test system: SR
# SNB-75 = test system: SNB-75
# SK-OV-3 = test system: SK-OV-3
# SK-MEL-28 = test system: SK-MEL-28
# U-251 = test system: U-251
# TK-10 = test system: TK-10
# SW-620 = test system: SW-620
# LOX IMVI = test system: LOX IMVI
# Hs-578T = test system: Hs-578T
# A498 = test system: A498
# SF-539 = test system: SF-539
# SF-268 = test system: SF-268
# HT-29 = test system: HT-29
# ACHN = test system: ACHN
# CCRF-CEM = test system: CCRF-CEM
# HCC 2998 = test system: HCC 2998
# HL-60 = test system: HL-60
# RPMI-8226 = test system: RPMI-8226
# SF-295 = test system: SF-295
# MOLT-4 = test system: MOLT-4
# HOP-92 = test system: HOP-92
compound,measurement,setting,value
COC(=O)c1ccccc1CC1Cc2ccc3c(c2C1=O)CCCC3 (stereo not given),GI50,MDA-MB-435,34.6 µM (inactive)
same,GI50,T47D,13.8 µM (inactive)
same,GI50,HCT-116,29.2 µM (inactive)
same,GI50,NCI-H460,68.5 µM (inactive)
same,GI50,M14,49 µM (inactive)
same,GI50,IGROV-1,> 100 µM (inactive)
same,GI50,BT-549,49.1 µM (inactive)
same,GI50,CAKI-1,24 µM (inactive)
same,GI50,UACC-62,57.1 µM (inactive)
same,GI50,EKVX,29.9 µM (inactive)
same,GI50,NCI-H226,60.1 µM (inactive)
same,GI50,MDA-N,35.8 µM (inactive)
same,GI50,K562,17 µM (inactive)
same,GI50,OVCAR-5,> 100 µM (inactive)
same,GI50,SK-MEL-5,15.5 µM (inactive)
same,GI50,MDA-MB-231,29.7 µM (inactive)
same,GI50,HOP-62,> 77.4 µM (inactive)
same,GI50,NCI-H23,35.3 µM (inactive)
same,GI50,Malme-3M,28.1 µM (inactive)
same,GI50,DU-145,48.4 µM (inactive)
same,GI50,HCT-15,25.4 µM
same,GI50,COLO 205,34 µM (inactive)
same,GI50,UACC-257,29.5 µM (inactive)
same,GI50,OVCAR-3,51.4 µM (inactive)
same,GI50,PC-3,23.7 µM (inactive)
same,GI50,OVCAR-8,43.3 µM (inactive)
same,GI50,NCI/ADR-RES,23.6 µM (inactive)
same,GI50,KM12,46.2 µM (inactive)
same,GI50,A549,34.3 µM (inactive)
same,GI50,UO-31,52.8 µM (inactive)
same,GI50,SNB-19,87.7 µM (inactive)
same,GI50,MCF7,37.4 µM (inactive)
same,GI50,786-0,35.2 µM (inactive)
same,GI50,OVCAR-4,23.3 µM (inactive)
same,GI50,SK-MEL-2,24.7 µM (inactive)
same,GI50,NCI-H522,22.6 µM (inactive)
same,GI50,SN12C,37.2 µM (inactive)
same,GI50,SR,14 µM (inactive)
same,GI50,SNB-75,40.4 µM (inactive)
same,GI50,SK-OV-3,> 95.9 µM (inactive)
same,GI50,SK-MEL-28,64.9 µM (inactive)
same,GI50,U-251,50.6 µM (inactive)
same,GI50,TK-10,51.4 µM (inactive)
same,GI50,SW-620,32 µM (inactive)
same,GI50,LOX IMVI,28.8 µM (inactive)
same,GI50,Hs-578T,60.7 µM (inactive)
same,GI50,A498,52.8 µM (inactive)
same,GI50,SF-539,62.1 µM (inactive)
same,GI50,SF-268,75.5 µM (inactive)
same,GI50,HT-29,20.4 µM (inactive)
same,GI50,ACHN,48.1 µM (inactive)
same,GI50,CCRF-CEM,23.8 µM (inactive)
same,GI50,HCC 2998,44.3 µM (inactive)
same,GI50,HL-60,12.9 µM (inactive)
same,GI50,RPMI-8226,19.2 µM (inactive)
same,GI50,SF-295,32 µM (inactive)
same,GI50,MOLT-4,10.4 µM (inactive)
CCCC1NC(C#N)(C#N)C(CCC)NC1(C#N)C#N (stereo not given),GI50,MDA-MB-435,0.106 µM (active)
same,GI50,T47D,0.946 µM (active)
same,GI50,HCT-116,< 0.0158 µM (active)
same,GI50,NCI-H460,14 µM (inactive)
same,GI50,M14,0.126 µM (active)
same,GI50,IGROV-1,1.42 µM (inactive)
same,GI50,BT-549,1.12 µM (inactive)
same,GI50,CAKI-1,0.0573 µM (active)
same,GI50,UACC-62,17.4 µM (inactive)
same,GI50,EKVX,42.8 µM (inactive)
same,GI50,NCI-H226,22.1 µM (inactive)
same,GI50,MDA-N,0.285 µM (active)
same,GI50,K562,0.0589 µM (active)
same,GI50,OVCAR-5,24.7 µM (inactive)
same,GI50,SK-MEL-5,1.44 µM (inactive)
same,GI50,MDA-MB-231,27.8 µM (inactive)
same,GI50,HOP-62,35.8 µM (inactive)
same,GI50,NCI-H23,2.49 µM (inactive)
same,GI50,Malme-3M,0.0297 µM (active)
same,GI50,DU-145,3.78 µM (inactive)
same,GI50,HCT-15,0.105 µM
same,GI50,COLO 205,< 0.01 µM (active)
same,GI50,UACC-257,> 100 µM (inactive)
same,GI50,OVCAR-3,0.076 µM (active)
same,GI50,PC-3,0.318 µM (active)
same,GI50,OVCAR-8,0.149 µM (active)
same,GI50,NCI/ADR-RES,0.243 µM (active)
same,GI50,KM12,9.25 µM (inactive)
same,GI50,A549,14.3 µM (inactive)
same,GI50,UO-31,0.0787 µM (active)
same,GI50,SNB-19,40.9 µM (inactive)
same,GI50,HOP-92,0.488 µM (active)
same,GI50,MCF7,0.0689 µM (active)
same,GI50,786-0,0.0326 µM (active)
same,GI50,OVCAR-4,1.18 µM (inactive)
same,GI50,SK-MEL-2,52.1 µM (inactive)
same,GI50,NCI-H522,< 0.0105 µM (active)
same,GI50,SN12C,1.11 µM (active)
same,GI50,SR,< 0.0173 µM (active)
same,GI50,SNB-75,2.17 µM (inactive)
same,GI50,SK-OV-3,35.9 µM (inactive)
same,GI50,SK-MEL-28,44.9 µM (inactive)
same,GI50,U-251,6.46 µM (inactive)
same,GI50,TK-10,1.01 µM (active)
same,GI50,SW-620,< 0.012 µM (active)
same,GI50,LOX IMVI,0.105 µM (active)
same,GI50,Hs-578T,3.07 µM (inactive)
same,GI50,A498,21.7 µM (inactive)
same,GI50,SF-539,0.197 µM (active)
same,GI50,SF-268,1.31 µM (inactive)
same,GI50,HT-29,0.115 µM (active)
same,GI50,ACHN,0.296 µM (active)
same,GI50,CCRF-CEM,< 0.01 µM (active)
same,GI50,HCC 2998,7.96 µM (inactive)
same,GI50,HL-60,< 0.0107 µM (active)
same,GI50,RPMI-8226,< 0.01 µM (active)
same,GI50,SF-295,22.7 µM (inactive)
same,GI50,MOLT-4,< 0.0214 µM (active)
